# Measurements from paper PMC6121530, “Synthesis, Biological Evaluation and Molecular Docking of Novel Indole-Aminoquinazoline Hybrids for Anticancer Properties” (International Journal of Molecular Sciences, 2018).
# Biological target: T1, epidermal growth factor receptor tyrosine kinase (EGFR-TK) (Homo sapiens, UniProt P00533)
# T1 construct: purified Epidermal Growth Factor Receptor (Sigma-Aldrich)
# Experiment: ELISA kinase inhibition assay with purified EGFR
# Format: biochemical
# T1 sequence (P00533 25-1210): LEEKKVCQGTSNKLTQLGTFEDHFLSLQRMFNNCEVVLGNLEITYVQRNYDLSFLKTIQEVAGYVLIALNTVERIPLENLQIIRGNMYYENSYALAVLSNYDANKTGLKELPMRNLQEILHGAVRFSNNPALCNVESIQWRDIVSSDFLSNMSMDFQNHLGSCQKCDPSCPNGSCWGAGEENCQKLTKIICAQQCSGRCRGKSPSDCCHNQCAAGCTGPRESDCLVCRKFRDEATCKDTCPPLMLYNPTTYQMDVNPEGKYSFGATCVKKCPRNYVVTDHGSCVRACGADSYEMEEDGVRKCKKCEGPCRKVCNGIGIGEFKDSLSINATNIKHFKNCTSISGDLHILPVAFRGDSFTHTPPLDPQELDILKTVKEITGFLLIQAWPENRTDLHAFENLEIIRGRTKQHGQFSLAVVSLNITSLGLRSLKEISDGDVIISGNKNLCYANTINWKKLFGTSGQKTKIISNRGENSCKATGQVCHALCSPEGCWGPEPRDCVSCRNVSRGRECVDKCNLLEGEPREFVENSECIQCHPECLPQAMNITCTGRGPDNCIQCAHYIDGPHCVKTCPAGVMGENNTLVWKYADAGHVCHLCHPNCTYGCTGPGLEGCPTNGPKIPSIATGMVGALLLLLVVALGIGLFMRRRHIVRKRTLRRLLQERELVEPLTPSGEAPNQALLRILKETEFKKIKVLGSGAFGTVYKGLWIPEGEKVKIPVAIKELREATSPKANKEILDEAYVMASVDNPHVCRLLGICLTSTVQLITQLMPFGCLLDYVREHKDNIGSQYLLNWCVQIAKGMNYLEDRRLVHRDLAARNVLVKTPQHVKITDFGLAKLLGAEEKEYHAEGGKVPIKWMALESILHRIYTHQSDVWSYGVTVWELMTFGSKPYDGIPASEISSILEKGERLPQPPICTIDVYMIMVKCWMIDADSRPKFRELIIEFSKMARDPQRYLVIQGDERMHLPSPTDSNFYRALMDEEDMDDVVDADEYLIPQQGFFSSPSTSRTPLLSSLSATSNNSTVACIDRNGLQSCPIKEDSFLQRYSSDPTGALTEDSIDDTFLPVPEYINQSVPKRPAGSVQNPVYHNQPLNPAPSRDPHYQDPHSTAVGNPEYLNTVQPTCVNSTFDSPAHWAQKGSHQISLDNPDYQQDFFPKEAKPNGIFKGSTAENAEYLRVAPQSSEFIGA
structure (smiles),measurement,value
"Fc1ccc(-c2nc(Nc3cc(Br)cc4cc(-c5ccc(F)cc5)[nH]c34)c3ccccc3n2)cc1 [4f, N-(5-Bromo-2-(4-fluorophenyl)-1H-indol-7-yl)-2-(4-fluorophenyl)quinazolin-4-amine]",IC50,52.5 nM
